These are literature values, as cited in patent US20060115514A1, “Chelating and binding chemicals to a medical implant, medical device formed, and therapeutic applications” (priority 2004, published 2006).

Data set [1] has as its system neointimal formation after balloon injury. The note with it: after balloon injury in rats.
Another data set relates to restenosis. The note with it: oral administration.

`N=C(N)c1ccc2cc(OC(=O)c3ccc(N=C(N)N)cc3)ccc2c1` [FUT-175]: the neointimal formation result in data set [1] is recorded as “inhibits”.
With `CO[C@H]1C[C@@H]2CC[C@@H](C)[C@@](O)(O2)C(=O)C(=O)N2CCCC[C@H]2C(=O)O[C@H]([C@H](C)C[C@@H]2CC[C@@H](O)[C@H](OC)C2)CC(=O)[C@H](C)/C=C(\C)[C@@H](O)[C@@H](OC)C(=O)[C@H](C)C[C@H](C)/C=C/C=C/C=C/1C` [sirolimus], in the data set on restenosis, the “incidence of adverse events” value is “higher incidence of adverse events”.
